Source: the NIST ThermoML archive (doi:10.1021/acs.jced.9b00752)

Assay: mn = molality of the nth substance listed, in mol/kg
Details: 100 kPa, Liquid, Vibrating tube method

N[C@@H](Cc1c[nH]cn1)C(=O)O [L-histidine] + O
mass density [kg/m3]
Details	273.65 K	274.15 K	274.65 K	275.15 K	275.65 K	276.15 K	276.65 K	277.15 K	277.65 K	278.15 K
m1 = 0.0078	1000.36	1000.39	1000.41	1000.43	1000.44	1000.45	1000.46	1000.45	1000.45	1000.44
m1 = 0.0176	1000.94	1000.96	1000.99	1001	1001.01	1001.02	1001.02	1001.02	1001.02	1001.01
m1 = 0.0269	1001.55	1001.57	1001.59	1001.61	1001.62	1001.62	1001.62	1001.62	1001.62	1001.61
m1 = 0.048	1002.8	1002.82	1002.83	1002.85	1002.86	1002.86	1002.86	1002.85	1002.85	1002.84
m1 = 0.0636	1003.83	1003.85	1003.87	1003.88	1003.88	1003.88	1003.88	1003.88	1003.87	1003.85
m1 = 0.0856	1005.09	1005.11	1005.12	1005.12	1005.13	1005.13	1005.12	1005.11	1005.1	1005.09
m1 = 0.0982	1005.86	1005.87	1005.88	1005.89	1005.89	1005.89	1005.88	1005.87	1005.86	1005.85
m1 = 0.115	1006.76	1006.77	1006.77	1006.78	1006.78	1006.78	1006.77	1006.76	1006.75	1006.73
m1 = 0.1268	1007.55	1007.57	1007.57	1007.57	1007.57	1007.57	1007.56	1007.54	1007.53	1007.51
m1 = 0.138	1008.24	1008.25	1008.25	1008.25	1008.25	1008.25	1008.23	1008.22	1008.2	1008.18
m1 = 0.1586	1009.57	1009.58	1009.58	1009.58	1009.58	1009.57	1009.55	1009.54	1009.52	1009.5
